The values below come from patent US8735398B2 (Bristol-Myers Squibb Company, priority 2009, dated 2014).

Read-outs that look alike come from different tables or passages of the source.

The experiment relates to HCV 1b genotype. Description: HCV replicon assay (HCV-neo replicon cells, wild-type). Format: cell-based, Hepatitis C virus. The conditions noted are these: Hepatitis C virus, HCV 1b genotype replicon. The method, boiled down: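 Inhibition was tested in replicon-bearing cells, both wild-type HCV-neo and lines with NS5A resistance substitutions, using the O'Boyle et al. 2005 replicon method or luciferase-reporter formats.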
A general note: A replicon is a self-replicating genome or part of one, used to study replication in cells.

Where [1] appears, read: class symbol, read-out: EC50 Range against HCV 1b.

One may read the EC50 as the midpoint of the concentration-response curve. `O=C(Nc1ccc(-c2cnc(-c3ccc(NC(=O)[C@@H]4C[C@@H](O)CN4C(=O)Cc4ccccc4)cc3)o2)cc1)[C@@H]1C[C@@H](O)CN1C(=O)Cc1ccccc1` [JG-2, (2S,4R,2′S,4′R)-N,N′-(1,3-oxazole-2,5-diyldi-4,1-phenylene)bis(4-hydroxy-1-(phenylacetyl)-2-pyrrolidinecarboxamide)]: the EC50 reads like this: under setting [1], < 4.57 nM; (read-out: EC50 1b) 2 nM. For `CC(=O)N1CCC[C@H]1C(=O)Nc1ccc(-c2sc(C)nc2-c2ccc(NC(=O)[C@@H]3CCCN3C(=O)Cc3ccccc3)cc2)cc1` [Example D-42, (2S)-1-acetyl-N-(4-(2-methyl-4-(4-((((2S)-1-(phenylacetyl)-2-pyrrolidinyl)carbonyl)amino)phenyl)-1,3-thiazol-5-yl)phenyl)-2-pyrrolidinecarboxamide], the EC50 under setting [1] lay within 1000 to 10000 nM. In the case of `CSC[C@H](NC(=O)Cc1ccccc1)C(=O)Nc1ccc(-c2cnc(-c3ccc(NC(=O)[C@H](CSC)NC(=O)Cc4ccccc4)cc3)o2)cc1` [JG-14, (2R,2′R)-N,N′-(1,3-oxazole-2,5-diyldi-4,1-phenylene)bis(3-(methylsulfanyl)-2-((phenylacetyl)amino)propanamide)], the concentration for a half-maximal effect (EC50) under setting [1] lay in the range of 100 to 999 nM. Regarding `CN(C)[C@@H](C(=O)N1CCCN1C(=O)Nc1ccc(-c2cnc(-c3ccc(NC(=O)N4CCCN4C(=O)[C@@H](c4ccccc4)N(C)C)cc3)o2)cc1)c1ccccc1` [FY-9, N,N′-(1,3-oxazole-2,5-diyldi-4,1-phenylene)bis(2-((2R)-2-(dimethylamino)-2-phenylacetyl)-1-pyrazolidinecarboxamide)], the EC50 under setting [1] was 4.57 to 99 nM.

For `C[C@H](NC(=O)c1nc(Cl)cc2ccccc12)C(=O)Nc1ccc(-c2cc(-c3ccc(NC(=O)[C@H](C)NC(=O)c4nc(Cl)cc5ccccc45)cc3)[nH]n2)cc1` [OL-48, N,N′-(1H-pyrazole-3,5-diylbis(4,1-phenyleneimino((2S)-1-oxo-1,2-propanediyl)))bis(3-chloro-1-isoquinolinecarboxamide)], the EC50 reads like this: under setting [1], 100 to 999 nM; (read-out: EC50 1b) 280 nM. In the case of `O=C(Nc1ccc(-c2cc(-c3ccc(NC(=O)[C@@H]4CCCN4C(=O)C4CCC4)cc3)[nH]n2)cc1)[C@@H]1CCCN1C(=O)C1CCC1` [OL-33, (2S,2′S)-N,N′-(1H-pyrazole-3,5-diyldi-4,1-phenylene)bis(1-(cyclobutylcarbonyl)-2-pyrrolidinecarboxamide)], the EC50 under setting [1] was in the range of 100 to 999 nM. As for `Cc1cc(CC(=O)N2C[C@H](O)C[C@H]2C(=O)Nc2ccc(-c3cnc(-c4ccc(NC(=O)[C@@H]5C[C@@H](O)CN5C(=O)Cc5cc(C)no5)cc4)o3)cc2)on1` [XY-52, (2S,4R,2′S,4′R)-N,N′-(1,3-oxazole-2,5-diyldi-4,1-phenylene)bis(4-hydroxy-1-((3-methyl-5-isoxazolyl)acetyl)-2-pyrrolidinecarboxamide)], the EC50 (class symbols, read-out: EC50 Range against HCV 1b) is 1000 to 10000 nM. On to `O=C(Nc1ccc(-c2nnc(-c3ccc(NC(=O)[C@H]4CCCCN4C(=O)OCc4ccccc4)cc3)o2)cc1)[C@H]1CCCCN1C(=O)OCc1ccccc1` [RK-5, dibenzyl (2R,2′R)-2,2′-(1,3,4-oxadiazole-2,5-diylbis(4,1-phenylenecarbamoyl))di(1-piperidinecarboxylate)], for which, under setting [1], the EC50 is 1000 to 10000 nM.

For `O=C(Nc1ccc(-c2cnc(-c3ccc(NC(=O)[C@@H]4CCCN4C(=O)[C@H](O)c4ccccc4Cl)cc3)o2)cc1)[C@@H]1CCCN1C(=O)[C@H](O)c1ccccc1Cl` [JG-26, (2S,2′S)-N,N′-(1,3-oxazole-2,5-diyldi-4,1-phenylene)bis(1-((2R)-2-(2-chlorophenyl)-2-hydroxyacetyl)-2-pyrrolidinecarboxamide)], under setting [1], the EC50 is < 4.57 nM. Consider `CC(=O)N1CCC[C@H]1C(=O)Nc1ccc(-c2nnc(-c3ccc(NC(=O)[C@@H]4CCCN4C(C)=O)cc3)o2)cc1` [Example D-55, (2S,2′S)-N,N′-(1,3,4-oxadiazole-2,5-diyldi-4,1-phenylene)bis[1-acetyl-2-pyrrolidinecarboxamide]], for which the EC50 under setting [1] was in the range of 1000 to 10000 nM and the concentration for a half-maximal effect (EC50) (read-out: EC50 1b) worked out at 10000 nM.
